# ChEMBL document CHEMBL1134323, “Structural basis for the binding affinity of xanthines with the DNA intercalator acridine orange” (J Med Chem, 2001)
# System: Nucleic Acid
row,K ass,Compound
1,0 M⁻¹,Clc1ncnc2[nH]cnc12
2,0 M⁻¹,O=c1[nH]c(=O)c2nc[nH]c2[nH]1
3,79.2 M⁻¹,Cn1c(=O)[nH]c2[nH]cnc2c1=O
4,0 M⁻¹,Cc1ncnc2nc[nH]c12
5,2 M⁻¹,c1nc2c[nH]cnc-2n1
6,0 M⁻¹,Nc1nc2[nH]cnc2c(=O)[nH]1

# Continued, compound first:
row,Compound,K ass
1,Cn1c(=O)c2c(n(C)c1=O)n(C)c(=O)n2C,552 M⁻¹
2,Cn1c(O)nc2[nH]c(=O)[nH]c(=O)c21,0 M⁻¹
3,Cn1c(=O)[nH]c(=O)c2[nH]cnc21,10 M⁻¹
4,CN1CNc2[nH]c(=O)n(C)c(=O)c21,155 M⁻¹
5,Oc1nc(O)c2nc(O)[nH]c2n1,0 M⁻¹
6,Cn1c2c(c(=O)n(C)c1=O)NCN2.N/C=C/N,596 M⁻¹
7,Cn1c(=O)c2[nH]cnc2n(C)c1=O,157 M⁻¹
8,Cn1c(=O)c2[nH]c(=O)[nH]c2n(C)c1=O,38.5 M⁻¹
